Assay results published in US20240408081A1, “NOVEL SYNERGISTIC COMBINATIONS AND METHODS OF USE THEREOF FOR TREATING CANCERS” (UNIVERSITE DE BORDEAUX, priority 2021, published 2024).
Where two headings read alike, the source gives them in different places.

Legend:
Huh6 and HepG2 cells = assay: Lipid droplets assay in hepatoblastoma cells; format: cell-based, human
Description: The cells were plated in 6-well plate at a density of 250,000 cells per well. […] After 48 hours of treatment, the cells were fixed in 4% PFA for 15 minutes then stained with the red oil for 15 minutes at room temperature. Finally, cells were washed several times and scanned using InCellis microscope (Bertin Technologies, France).

[1] = test system: Huh6 and HepG2 hepatoblastoma cells; assay: Growth and viability of hepatoblastoma cells (Huh6 and HepG2), 2D and 3D spheroid; format: cell-based, human
Description: (§1) For 2D culture, a total of 2,000 cells/well for Huh6 and 3,000 cells/well for HepG2 were seeded in 96-well microtiter plates. Cell growth was measured at 24 h, 48h, 72h or 96h after genetic manipulation and at 48h or 72h after drug treatment using the in vitro MTS assay Kit or Sulforhodamine B (SRB, Absorbance at 565 nm) assay (Sigma) following manufacturer's instructions. For 3D culture, spheroids were formed as described above and microplates were incubated in an IncuCyte® S3 live cell analysis system and scanned every 8 hours. For genetic manipulation, the lentiviral transductions or the gene depletions were done before the plating. For drug treatments, depending on the experiment and the drug, spheroids were treated at day 4 or 5 for 48h or 72h. Cell viability assay in spheroids was done using 1 μM calcein AM (BioLegend) and 2 μM ethidium homodimer 1 (Sigma) for 30 minutes at 37° C. Spheroids were imaged using an IncuCyte® S3 live cell analysis system. For all cell viability assays, drugs were used at half maximal inhibitory concentration (IC50).

xenopus embryos = assay: Toxicological assay in Xenopus embryos; format: in vivo; conditions: treated from gastrula stage
Description: Embryos were left in solution until untreated control embryos reached stage 41.

H3K27me3 trimethylation = assay: Western blot of H3K27me3 in DMG cells; format: cell-based, human
Description: Histone extraction was performed according to manufacturer's instructions (Histone Extraction Kit-ab113476, Abcam, Paris, France).
(§2) Cell lysates were prepared by scraping cells using RIPA buffer (Sigma Aldrich) plus proteinase inhibitors (Sigma Aldrich) and centrifuged at 13000 g for 15 min at 4° C. Protein concentrations were measured using Pierce™ BCATM Protein Assays (ThermoFisher) and equal amounts of cell extracts were loaded for western blot analysis in 4-15% precasted polyacrylamide gel (Bio-Rad). Proteins were blotted on a nitrocellulose membrane (Transblot® Turbo midi-size, Bio Rad), blocked with the Odyssey blocking buffer (LI-COR Biosciences, ScienceTec, Les Ulis, France) or with BSA diluted in Tris-buffered saline with 0.1% Tween 20 (TBST) and probed with primary antibodies overnight at 4° C. […] Quantification was performed using ImageJ (National Institutes of Health, Bethesda, Maryland, USA).

[2] = test system: patients with relapsed/refractory solid tumors and hematologic malignancies; conditions: cited from earlier work
Huh6 cells = assay: Cell viability assay (CellTiter 96 AQueous One / MTS) in Huh6; format: cell-based, human
Description: as §1

BXdmg1 primary cells = assay: Proliferation assay in primary DMG cells BXdmg1; format: cell-based, human
Description: (§3) Cell growth was measured with the In vitro Toxicology Assay kit (Sulforhodamine B, Sigma Aldrich, Saint Quentin Fallavier, France) according to manufacturer's instructions. Cells were plated at a density of 2000 cells per well in 96-well plates in triplicates. Absorbance was measured at 565 nm using the CLARIOstar multiplate reader (BMG Labtech, Champigny-sur-Marne, France) at indicated time points.
A DMG biopsy was received in the laboratory and dissociated using GentleMACs cell separator (Miltenyi Biotech, Paris, France) within 24h using MACSBrain Tumor Dissociation Kit (Miltenyi Biotech, Paris, France) and the standard GentleMACs brain tissue separation program. Cells yielded were cultivated in Amniomax C100SUP plus Amniomax C100 basal medium (Gibco, ThermoFisher, Illkirch Cedex, France). Molecular and cellular analysis of the biopsy were detailed in FIG. 7 (see Rahal, F., C. Capdevielle, B. Rousseau, J. Izotte, J. W. Dupuy, D. Cappellen, G. Chotard, M. Menard, J. Charpentier, V. Jecko, C. Caumont, E. Gimbert, C. F. Grosset and M. Hagedorn (2022). “An EZH2 blocker sensitizes histone mutated diffuse midline glioma to cholesterol metabolism inhibitors through an off-target effect.” Neurooncol Adv 4 (1): vdac018).

[3] = test system: HMGCS, HMGCR, LDLR, NPC1 and SQLE; assay: RT-qPCR and Western blot of lipid and cholesterol synthesis genes in DIPG cells; format: cell-based, human; conditions: GSK-126 at IC50 of each cell line
Description: as §2
Total RNA was isolated from cell lines with the TRI Reagent (Sigma) following manufacturer's instructions. For quantification of messenger RNA (mRNA) expression, total RNA was retrotranscribed using the Maxima Reverse Transcriptase (Thermo Scientific). […]

[4] = test system: NEM157i, SU-DIPG-IVi and NEM163i DMG cells; assay: Proliferation / cell viability assay (Sulforhodamine B) in DMG cell lines; format: cell-based, human
Description: as §3

[5] = test system: SU-DIPG-IVi-Luc cells implanted in the brainstem; assay: Orthotopic SU-DIPG-IVi-Luc brainstem glioma model in NSG mice; format: in vivo, NOD/LtSz-scid IL2R gamma (NSG) mice
Description: For the mouse model, the immortalized SU-DIPG-IV line was used. SU-DIPG-IVi was transduced by a luciferase vector (Luc) with a MOI of 10. Two days after birth, 10^5 SU-DIPG-IVi-Luc cells in 2 μl were injected directly into the brainstem through the neck to a depth of 3 mm using a 2 μl NeuroSyringe (Hamilton Neuros, Dutscher, Bruxelles, Belgium) under anesthesia with 2% isoflurane and 50% oxygen enrichment. […] Tumor growth was evaluated non-invasively with anesthetized mice on a Biospace imager (Biospace Lab, Nesles la Vallée, France) 1-2 days after each treatment.
Prior to treatments, mice were micro-tattooed (Aramis kit, BiosebLab, France). Animals were weighed and then receive an i.p. injection in the lower right quadrant following IACUC recommendations. A 1 ml tuberculin syringe and a 26-gauge needle were used with an injection volume of 200 μl for a 30 g mouse (3 mg/ml), adjusted to actual weight each week. Treatment was done 3 times a week, starting at day 8. Tumor growth was evaluated non-invasively on a Biospace imager (Biospace Lab, Nesles la Vallée, France). The entire procedure was carried out on a heating mat at 37° C. The animals were shaved and anesthetized in sterile condition (under PSM-2) in boxes dedicated to imaging. […]

CC[C@H](C)n1cc(C)c2c(C(=O)NCc3c(C)cc(C)[nH]c3=O)cc(-c3ccc(N4CCNCC4)nc3)cc21 [GSK-126, 1-[(2S)-butan-2-yl]-N-[(4,6-dimethyl-2-oxo-1H-pyridin-3-yl)methyl]-3-methyl-6-[6-(1-piperazinyl)-3-pyridinyl]-4-indolecarboxamide]
synthesis of lipids (Huh6 and HepG2 cells): triggered
sensitivity of Huh6 and HepG2 cells in presence of Simvastatin or Atorvastatin ([1]; 72 h, 4 μM Simvastatin or 8 μM Atorvastatin): significantly increased (at least twice)
IC50 ([1]; Homo sapiens, hepatoblastoma cells, 48 h): 6 to 8 µM
toxic dose in xenopus embryos (xenopus embryos): 1 mM
H3K27me3 trimethylation (H3K27me3 trimethylation; BXdmg1 cells, histone-purified protein extracts): reduced H3K27me3 trimethylation in a dose-dependent manner
H3K27me3 trimethylation (H3K27me3 trimethylation; NEM157i and SU-DIPG-IVi DMG cells): efficiently inhibited
clinical activity ([2]; at the MTD): inadequate clinical activity
half-life ([2]; human, in vivo): relatively short
maximum tolerated dose (MTD) ([2]; twice weekly intravenous, 28 days (3 weeks on/1 week off)): 2,400 mg
IC25 dose (Huh6 cells): 3 µM
IC50 (Huh6 cells; Homo sapiens, HuH-6): 6 µM
IC50 (BXdmg1 primary cells): 10.4 µM
IC50 (BXdmg1 primary cells; Homo sapiens): ~10 µM
expression of HMGCS, HMGCR, LDLR, NPC1 and SQLE genes, and HMGCR and SQLE proteins [3]: induced
effect of low dose on DMG cell growth ([4]; 4 μM): does not affect
IC50 ([4]; Homo sapiens, three DMG cell lines, 72 h of treatment, read-out: IC50 (half maximal inhibitory concentration)): 7.6 to 10.3 µM
doses with significant growth inhibition ([4]; NEM157i and SU-DIPG-IVi): above 6 μM
doses with total growth inhibition ([4]; NEM157i and SU-DIPG-IVi): above 25 μM
tumor growth (bioluminescence) ([5]; GSK-126 6 mg/kg, Atorvastatin 10 mg/kg, after four treatments): No significant differences
tumor growth (bioluminescence) ([5]; i.p. dose of 10 mg/kg, 3-times a week): significant growth reduction
